Data: patent US20250051375A1, “ANTI-HIV COMPOUNDS” (Gilead Sciences, Inc., priority 2023, published 2025)
In brackets after ≈: the same amount, converted by molar mass. Read-outs that look alike come from different tables or passages of the source.

Key:
PBS Stability Assay = assay type: physicochemical; conditions: phosphate buffered saline pH 7.4; for half-life at 2 μM: buffer, pH 7.4, 2 μM, read-out: PBS T½
Method: Reagents. Stock solutions of test compounds in dimethyl sulfoxide (DMSO) having a final concentration of 10 mM were prepared and used in all experiments. Sekisui XenoTech (Kansas City, KS) provided pooled intestinal S9 fractions. All other chemicals were purchased from Sigma-Aldrich (St. Louis, MO) or VWR (West Chester, PA). Internal Standard/Quench (IS/Q) used to stop reactions was 100 nM labetalol in (by volume) formic acid (1%) and acetonitrile (99%).
PBS Stability Assay: For each test compound, an aliquot of the test compound was added to phosphate buffered saline (137 mM NaCl, 2.7 mM KCl, 10 mM phosphate buffer), pH 7.4. The incubation was initiated by the addition of the test compound to PBS to a final concentration of 2 μM. At 0, 10, 20, 30, 60 and 120 min, 25 μL aliquots of the incubation mixture were transferred to plates containing 225 μl of IS/Q solution. After quenching, the plates were centrifuged at 3000×g for 30 minutes. 150 μL aliquots of each supernatant were transferred to new plates and 150 μL water was added. Aliquots (10 μL) of the prepared samples were analyzed on a Thermo Q-Exactive mass spectrometer as described below.
Liquid Chromatography-Mass Spectrometry: Quantification of test compounds and control substrate was performed by analyte/internal standard peak area ratio (PAR) values measured on a Thermo Q-Exactive mass spectrometer coupled to a Dionex UltiMate 3000 HPLC with a Leap Technologies HTC PAL autosampler. The column used for analysis was a Thermo Scientific Hypersil GOLD (1.9 μm particle size, 50×2.1 mm). Mobile phase A consisted of 0.1% (v/v) formic acid in water. Mobile phase B consisted of 0.1% (v/v) formic acid in acetonitrile. Elution of analytes was achieved by a series of linear gradients varying the proportions of A and B. The mass spectrometer was calibrated on a weekly basis and mass tolerance of 5 ppm was used.
Data Analysis. Metabolic stabilities were determined by measuring the rates of disappearance of test compound and positive control substrate. Data (% of substrate remaining) were plotted on a semi-log scale and fitted using an exponential decline model:
where • Ct% of substrate remaining at time=t • C0% of substrate remaining at time=0 • t time • T½ half-life • The Half-life (T½) is determined by the following equation:
[formula] • Assuming a first-order reaction, the slope (k) is extrapolated from the aforementioned plotted data.

HIV-1 IIIB strain = assay: MT-4 HIV Wild Type Virus Infection Assay (IIIB Virus); assay type: cell-based; conditions: MT-4 cells acutely infected with HIV-1 IIIB, 5 day incubation, Cell-titer glo
Method: Test compounds and controls were serially diluted and spotted in replicate into 384 well black assay plates via acoustic transfer (Echo). MT-4 cells were grown in batch, centrifuged and resuspended into fresh CCM media (RPMI w/10% FBS, 1% PS) at 2×10^6 cells/ml. MT-4 cells were acutely infected with HIV-1 IIIB strain. The size of each infection mix was scaled by the number of sample plates to be tested. Each infection mix was transferred into 5 mL closed tubes and nutated rapidly on a shaker at 37° C. incubator for 1 hour. The infection mixes were then diluted 25× in fresh cell culture media and then added to assay plates at 40 μL per well using a ViaFlo 384 pipettor. After 5 day incubation at 37° C. in a CO2 incubator, assay plates were processed with Cell-titer glo reagent using a ViaFlo 384 with an addition/mixing program. Plates were read immediately on Envision reader. Assay signals were plotted and dose response curves generated to determine individual compound EC50s.

Solubility in FaSSIF = conditions: for solubility at 2 h: 23 °C, pH 6.5, fassif, thermodynamic from solid
Method: Buffer Preparation: Fasted State Simulated Intestinal Fluid (FaSSIF): Simulated Intestinal Fluid (SIF) powder containing a complex of Taurocholate and Lecithin (4:1 molar ratio) was obtained from Biorelevant. 0.056 g of SIF powder was added to 25 mL of buffer, adjusted to pH 6.5, containing 0.011 g of NaOH (pellets), 0.099 g of NaH2PO4 (monohydrate), and 0.155 g of NaCl. The buffer was prepared with HPLC H2O. The SIE powder was stirred until completely dissolved and allowed to stand for 2 hours.
Test Compounds: Each test compound was placed in a vial containing approximately 7 mg of material. Aliquots were weighed out for each assay media at each time point to be analyzed. The buffer was added to each vial such that the final dose concentration of 5 mg/mL was achieved. Samples were then vortexed for 5-10 seconds.
The plate was sealed with a pierceable heat seal and analyzed by HPLC-UV.

[1] = target: bovine intestinal alkaline phosphatase (Bos taurus (Bovine), UniProt P19111); assay: BiALP: conversion by bovine intestinal alkaline phosphatase; assay type: in vitro ADME; conditions: 2 μM substrate, 100 ng/mL iALP, Tris pH 7.8, 37° C., 60 minutes
Method: Fosamprenavir and its parent compound (amprenavir) were purchased from Millipore Sigma (St. Louis, MO). Test compounds, Intermediate A, fosamprenavir, and amprenavir were each separately dissolved in dimethyl sulfoxide (DMSO) at a concentration of 10 mM to form stock solutions.
All other chemicals were purchased from Millipore Sigma (St. Louis, MO) and Thermo Fisher Scientific (Waltham, MA). […] Internal Standard/Quench (IS/Q) was 100 nM labetalol in 99:1 (v/v) acetonitrile/formic acid.
Incubations were performed with Tris buffer alone (0.1 M Tris-HCl pH 7.8 containing 1 mM MgCl2 and 1 mM ZnCl2) or the same Tris buffer further containing 100 ng/mL iALP (0.01 units/mL). Triplicate 100 μL aliquots of Tris buffer±iALP were warmed to 37° C. and the reactions were initiated by the addition of the test compound or fosamprenavir to obtain final substrate concentrations of 2 μM. Incubations were then continued at 37° C. At 60 minutes, reactions were terminated by the addition of 200 μl of IS/Q and mixed by pipette. […] Aliquots (150 μL) of the supernatants were transferred to fresh plates containing 150 μL of water. Aliquots (15 μL) of the diluted supernatants were analyzed by mass spectrometry as described below.
Quantification of the test compounds and fosamprenavir was performed by analyte/internal standard peak area ratios (PARs) with comparison to 2 μM Intermediate A and amprenavir, respectively. The LC instrumentation consisted of a Thermo Scientific Vanquish pump and a Thermo Hypersil Gold column (1.9 μm particle size, 2.1×50 mm). […] The MS instrument was a Thermo Q Exactive™ Plus operating in positive ionization mode with mass tolerance of 5 ppm and calibrated on a twice weekly basis.

[2] = Human immunodeficiency virus 1, IIIB, MT4, 120 h

Sequence of bovine intestinal alkaline phosphatase (P19111 20-506): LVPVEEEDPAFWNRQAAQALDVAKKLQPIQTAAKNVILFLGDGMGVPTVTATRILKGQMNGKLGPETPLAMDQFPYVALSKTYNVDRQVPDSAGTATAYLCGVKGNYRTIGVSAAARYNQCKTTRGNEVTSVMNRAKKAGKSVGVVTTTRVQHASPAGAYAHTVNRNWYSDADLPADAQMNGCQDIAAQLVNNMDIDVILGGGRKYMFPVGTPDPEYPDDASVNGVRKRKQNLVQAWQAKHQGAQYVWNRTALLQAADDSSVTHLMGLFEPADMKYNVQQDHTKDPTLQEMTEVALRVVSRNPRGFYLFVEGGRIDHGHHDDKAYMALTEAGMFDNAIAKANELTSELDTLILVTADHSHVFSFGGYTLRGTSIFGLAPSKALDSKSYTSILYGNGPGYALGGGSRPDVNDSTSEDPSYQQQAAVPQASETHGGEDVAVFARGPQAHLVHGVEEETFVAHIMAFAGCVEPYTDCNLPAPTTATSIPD

Structure (SMILES)	PBS T½ (PBS Stability Assay; 2 μM)	EC50 (HIV-1 IIIB strain; read-out: EC50)	FaSSIF (pH 6.5) solubility (Solubility in FaSSIF; FaSSIF pH 6.5, dose 5 mg/mL, 2-hour incubation, ambient temperature)	[Compound] [1]	half-life at 2 μM (PBS Stability Assay)	EC50 (HIV-1 IIIB strain; [2])	solubility at 2 h (Solubility in FaSSIF)	biALP Intermediate A or [Amprenavir] (% of total) [1]	[Intermediate A] or [Amprenavir] ([1]; parent formed)
COC(=O)N[C@H](C(=O)N[C@@H](Cc1ccc(C#Cc2cnc(N3CC4CCC(C3)N4C3COC3)nc2)cc1)[C@H](CN(Cc1c(F)cc(-c2ccn(C(F)F)n2)cc1F)NC(=O)[C@@H](NC(=O)OC)C(C)(C)C(F)(F)F)OC(=O)O[C@H](C)OC(=O)CC(C)(C)c1c(CC(=O)O)cc(C)cc1OP(=O)(O)O)C(C)(C)C(F)(F)F [Example 65]	11.15 h	12.6 nM	1310 μg/mL	1224.6 nM	–	–	–	–	–
COC(=O)N[C@H](C(=O)N[C@@H](Cc1ccc(C#Cc2cnc(N3CC4CCC(C3)N4C3COC3)nc2)cc1)[C@H](CN(Cc1c(F)cc(-c2ccn(C(F)F)n2)cc1F)NC(=O)[C@@H](NC(=O)OC)C(C)(C)C(F)(F)F)OC(=O)CC(C)(C)c1c(CC(=O)N[C@H]2C[C@H](C(=O)O)C2)cc(C)cc1OP(=O)(O)O)C(C)(C)C(F)(F)F [Example 101]	–	–	–	1688.4 nM	8.09 h	60.6 nM	1520 µg/mL (≈ 964 µM)	–	–
COC(=O)N[C@H](C(=O)N[C@@H](Cc1ccc(C#Cc2cnc(N3CC4CCC(C3)N4C3COC3)nc2)cc1)[C@H](CN(Cc1c(F)cc(-c2ccn(C(F)F)n2)cc1F)NC(=O)[C@@H](NC(=O)OC)C(C)(C)C(F)(F)F)OC(=O)OCOC(=O)CC(C)(C)c1c(CC(=O)NCC(=O)O)cc(C)cc1OP(=O)(O)O)C(C)(C)C(F)(F)F [Example 71]	–	–	–	1036.2 nM	7.86 h	3.9 nM	4420 µg/mL (≈ 2740 µM)	–	–
COC(=O)N[C@H](C(=O)N[C@@H](Cc1ccc(C#Cc2cnc(N3CC4CCC(C3)N4C3COC3)nc2)cc1)[C@H](CN(Cc1c(F)cc(-c2ccn(C(F)F)n2)cc1F)NC(=O)[C@@H](NC(=O)OC)C(C)(C)C(F)(F)F)OC(=O)OCOC(=O)CC(C)(C)c1c(CC(=O)N[C@@H](CC(=O)O)C(=O)O)cc(C)cc1OP(=O)(O)O)C(C)(C)C(F)(F)F [Example 68]	–	–	–	1478.2 nM	6.27 h	5.9 nM	4440 µg/mL (≈ 2650 µM)	–	–
COC(=O)N[C@H](C(=O)N[C@@H](Cc1ccc(C#Cc2cnc(N3CC4CCC(C3)N4C3COC3)nc2)cc1)[C@H](CN(Cc1c(F)cc(-c2ccn(C(F)F)n2)cc1F)NC(=O)[C@@H](NC(=O)OC)C(C)(C)C(F)(F)F)OC(=O)CC(C)(C)c1c(CC(=O)NC(CP(=O)(O)O)C(=O)O)cc(C)cc1OP(=O)(O)O)C(C)(C)C(F)(F)F (stereo partly drawn) [Example 34]	–	–	–	2238.2 nM	5.08 h	179 nM	4810 µg/mL (≈ 2940 µM)	–	–
COC(=O)N[C@H](C(=O)N[C@@H](Cc1ccc(C#Cc2cnc(N3CC4CCC(C3)N4C3COC3)nc2)cc1)[C@H](CN(Cc1c(F)cc(-c2ccn(C(F)F)n2)cc1F)NC(=O)[C@@H](NC(=O)OC)C(C)(C)C(F)(F)F)OC(=O)OCOC(=O)CC(C)(C)c1c(CC(=O)NC(C)(C)CCC(=O)O)cc(C)cc1OP(=O)(O)O)C(C)(C)C(F)(F)F [Example 73]	–	–	–	1660.4 nM	6.36 h	4.6 nM	145 µg/mL (≈ 86.7 µM)	–	–
COC(=O)N[C@H](C(=O)N[C@@H](Cc1ccc(C#Cc2cnc(N3CC4CCC(C3)N4C3COC3)nc2)cc1)[C@H](CN(Cc1c(F)cc(-c2ccn(C(F)F)n2)cc1F)NC(=O)[C@@H](NC(=O)OC)C(C)(C)C(F)(F)F)OC(=O)CC(C)(C)c1c(CC(=O)NCCC(=O)O)cc(C)cc1OP(=O)(O)O)C(C)(C)C(F)(F)F [Example 26]	–	–	–	1764 nM	2.44 h	96.9 nM	1440 µg/mL (≈ 923 µM)	–	–
COC(=O)N[C@H](C(=O)N[C@@H](Cc1ccc(C#Cc2cnc(N3CC4CCC(C3)N4C3COC3)nc2)cc1)[C@H](CN(Cc1c(F)cc(-c2ccn(C(F)F)n2)cc1F)NC(=O)[C@@H](NC(=O)OC)C(C)(C)C(F)(F)F)OC(=O)CC(C)(C)c1c(CC(=O)Nc2ccccn2)cc(C)cc1OP(=O)(O)O)C(C)(C)C(F)(F)F [Example 13, (5S,10S,11S,14S)-8-(4-(1-(difluoromethyl)-1H-pyrazol-3-yl)-2,6-difluorobenzyl)-11-(4-((2-(8-(oxetan-3-yl)-3,8-diazabicyclo[3.2.1]octan-3-yl)pyrimidin-5-yl)ethynyl)benzyl)-3,6,13,16-tetraoxo-5,14-bis(1,1,1-trifluoro-2-methylpropan-2-yl)-2,17-dioxa-4,7,8,12,15-pentaazaoctadecan-10-yl 3-methyl-3-(4-methyl-2-(2-oxo-2-(pyridin-2-ylamino)ethyl)-6-(phosphonooxy)phenyl)butanoate]	–	–	–	1660.2 nM	1.98 h	223 nM	–	0.1 % of total	1.8 nM
COC(=O)N[C@H](C(=O)N[C@@H](Cc1ccc(C#Cc2cnc(N3CC4CCC(C3)N4C3COC3)nc2)cc1)[C@H](CN(Cc1c(F)cc(-c2ccn(C(F)F)n2)cc1F)NC(=O)[C@@H](NC(=O)OC)C(C)(C)C(F)(F)F)OC(=O)CC(C)(C)c1c(CC(=O)NC(CCCC(=O)O)C(=O)O)cc(C)cc1OP(=O)(O)O)C(C)(C)C(F)(F)F (stereo partly drawn) [Example 41]	–	–	–	2074.8 nM	5.02 h	43.5 nM	–	–	–
COC(=O)N[C@H](C(=O)N[C@@H](Cc1ccc(C#Cc2cnc(N3CC4CCC(C3)N4C3COC3)nc2)cc1)[C@H](CN(Cc1c(F)cc(-c2ccn(C(F)F)n2)cc1F)NC(=O)[C@@H](NC(=O)OC)C(C)(C)C(F)(F)F)OC(=O)CC(C)(C)c1c(CC(=O)N[C@@H](CC(=O)O)C(=O)O)cc(C)cc1OP(=O)(O)O)C(C)(C)C(F)(F)F [Example 23]	–	–	–	–	11.7 h	204 nM	4540 µg/mL (≈ 2840 µM)	–	–
